In paper PMC3337333 (Bioorganic & medicinal chemistry letters, 2012):

Assays:
[1] = molecular target: Hsp90-TPR protein complexes; conditions: C-terminal binder; ref [21]; cited from earlier work
[2] = system: apoptosis; conditions: ref [4]; cited from earlier work
[3] = system: Hsp90 in HCT 116 cells; experiment: Immunofluorescence staining of Hsp90 in treated colon cancer cells; assay type: cell-based; conditions: 17-AAG 24 hours 200 nM, compound 3 and compound 4 72 hours 5 µM, polyclonal antibody to Hsp90

For `CO[C@@H]1[C@@H](OC(N)=O)[C@@H](O)[C@H](Oc2ccc3c(O)c(NC(=O)c4ccc(O)c(CC=C(C)C)c4)c(=O)oc3c2C)OC1(C)C` [novobiocin], the “IC50, inhibition of binding between Hsp90 and four TPR-containing co-chaperones” value [1] is listed as “millimolar range”.

For Sansalvamide A-amide [compound 1], the induction of apoptosis [2] is listed as “induce apoptosis”.

For `C=CCNC1=C2C[C@@H](C)C[C@H](OC)[C@H](O)[C@@H](C)/C=C(\C)[C@H](OC(N)=O)[C@@H](OC)/C=C\C=C(/C)C(=O)NC(=CC1=O)C2=O` [17-AAG, 17-(allylamino)-17-demethoxygeldanamycin], the “Hsp90 staining in cytosol versus DMSO control” value [3] was “intensify in brightness”.
